From PubChem BioAssay (NCI)
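Step 1: Grow cells in 96-well plates. Step 2: Expose to compound for 48 hours at 5 concentrations. Step 3: Interpolate endpoints linearly; if unreached, use highest concentration. GI50 is the concentration that inhibits growth by half. TGI: concentration producing complete growth inhibition.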

system: U251 CNS; assay: DTP human tumour cell line panel, 48 h

| Structure (SMILES) | GI50 | TGI |
| --- | --- | --- |
| COc1ccc(-c2nsc3c2NC(=O)CC3c2cccc(OC)c2)cc1 (stereo unspecified) | 1.83 µM | > 100 µM |
| O=[N+]([O-])c1ccc(CI)cc1 | 2.91 µM | 10.4 µM |
| CCN(Cc1ccc(F)cc1)c1ccc(CO)c(Br)c1 | 0.171 µM | 13 µM |
| COc1ccc(-c2cc(/C=C/C(=O)c3ccc(OC)c(OC)c3)[nH]n2)cc1 | 1.11 µM | 2.34 µM |
| CC(=O)N1CCC(=O)/C(=C/c2ccccc2)C1 |  | 34.3 µM |
| COc1ccc(C(O)(CCC(C)C)C(CN2CCOCC2)c2ccc(Cl)cc2)cc1 (stereo unspecified) | 12.3 µM | 26.3 µM |
| COc1cc(/C=C\c2cc(OC)c(OC)c(OC)c2)cc(N/C=C\C(=O)c2cc(OC)c(OC)c(OC)c2)c1OC | 3.84 µM | > 100 µM |
| Cn1c(=O)c(Oc2ccc(F)cc2)cc2cnc(NC3CCOCC3)nc21 | > 25 µM | > 25 µM |
| Clc1nc(Cl)nc(Nc2cccc3ccccc23)n1 | > 100 µM | > 100 µM |
| Nc1c(C(=O)c2ccccc2)cnn1-c1ccc(F)cc1 | > 25 µM | > 25 µM |
| C#Cc1nc(Nc2cc(C)[nH]n2)c2ccccc2n1 | 0.256 µM | 0.885 µM |
| Cc1nc2cc(Nc3nc(Nc4ccc(F)cc4)nc(-c4cccs4)n3)ccc2n1Cc1ccccc1 | 3.13 µM | 13.7 µM |

system: SN12C renal; assay: DTP human tumour cell line panel, 48 h

| Structure (SMILES) | GI50 | TGI |
| --- | --- | --- |
| COc1ccc(-c2nsc3c2NC(=O)CC3c2cccc(OC)c2)cc1 (stereo unspecified) | 3.81 µM | > 100 µM |
| O=[N+]([O-])c1ccc(CI)cc1 | 2 µM | 5.39 µM |
| CCN(Cc1ccc(F)cc1)c1ccc(CO)c(Br)c1 | 8.71 µM | 23.9 µM |
| COc1ccc(-c2cc(/C=C/C(=O)c3ccc(OC)c(OC)c3)[nH]n2)cc1 | 1.64 µM | 3.78 µM |
| CC(=O)N1CCC(=O)/C(=C/c2ccccc2)C1 |  | 37.6 µM |
| COc1ccc(C(O)(CCC(C)C)C(CN2CCOCC2)c2ccc(Cl)cc2)cc1 (stereo unspecified) | 13.4 µM | 31.2 µM |
| COc1cc(/C=C\c2cc(OC)c(OC)c(OC)c2)cc(N/C=C\C(=O)c2cc(OC)c(OC)c(OC)c2)c1OC | 4.03 µM | > 100 µM |
| Cn1c(=O)c(Oc2ccc(F)cc2)cc2cnc(NC3CCOCC3)nc21 | > 25 µM | > 25 µM |
| Clc1nc(Cl)nc(Nc2cccc3ccccc23)n1 | > 100 µM | > 100 µM |
| Nc1c(C(=O)c2ccccc2)cnn1-c1ccc(F)cc1 | > 25 µM | > 25 µM |
| C#Cc1nc(Nc2cc(C)[nH]n2)c2ccccc2n1 | 0.236 µM | 0.726 µM |
| Cc1nc2cc(Nc3nc(Nc4ccc(F)cc4)nc(-c4cccs4)n3)ccc2n1Cc1ccccc1 | 5.73 µM | 58.1 µM |

system: UACC-62 melanoma; assay: DTP human tumour cell line panel, 48 h

| Structure (SMILES) | GI50 | TGI |
| --- | --- | --- |
| COc1ccc(-c2nsc3c2NC(=O)CC3c2cccc(OC)c2)cc1 (stereo unspecified) | 0.865 µM | > 100 µM |
| O=[N+]([O-])c1ccc(CI)cc1 | 2.94 µM | 12.2 µM |
| CCN(Cc1ccc(F)cc1)c1ccc(CO)c(Br)c1 | 0.0522 µM | 0.342 µM |
| COc1ccc(-c2cc(/C=C/C(=O)c3ccc(OC)c(OC)c3)[nH]n2)cc1 | 1.65 µM | 3.35 µM |
| CC(=O)N1CCC(=O)/C(=C/c2ccccc2)C1 |  | 82.7 µM |
| COc1ccc(C(O)(CCC(C)C)C(CN2CCOCC2)c2ccc(Cl)cc2)cc1 (stereo unspecified) | 13.4 µM | 29.1 µM |
| COc1cc(/C=C\c2cc(OC)c(OC)c(OC)c2)cc(N/C=C\C(=O)c2cc(OC)c(OC)c(OC)c2)c1OC | 3.11 µM | > 100 µM |
| Cn1c(=O)c(Oc2ccc(F)cc2)cc2cnc(NC3CCOCC3)nc21 | > 25 µM | > 25 µM |
| Clc1nc(Cl)nc(Nc2cccc3ccccc23)n1 | 82.5 µM | > 100 µM |
| Nc1c(C(=O)c2ccccc2)cnn1-c1ccc(F)cc1 | > 25 µM | > 25 µM |
| C#Cc1nc(Nc2cc(C)[nH]n2)c2ccccc2n1 | 0.165 µM | 0.332 µM |

system: CCRF-CEM leukemia; assay: DTP human tumour cell line panel, 48 h

| Structure (SMILES) | GI50 | TGI |
| --- | --- | --- |
| COc1ccc(-c2nsc3c2NC(=O)CC3c2cccc(OC)c2)cc1 (stereo unspecified) | 2.08 µM | > 100 µM |
| O=[N+]([O-])c1ccc(CI)cc1 | 0.518 µM | 2.59 µM |
| CCN(Cc1ccc(F)cc1)c1ccc(CO)c(Br)c1 | 14.6 µM | 43.9 µM |
| COc1ccc(-c2cc(/C=C/C(=O)c3ccc(OC)c(OC)c3)[nH]n2)cc1 | 1.34 µM | 4.14 µM |
| COc1ccc(C(O)(CCC(C)C)C(CN2CCOCC2)c2ccc(Cl)cc2)cc1 (stereo unspecified) | 13.6 µM | 34.8 µM |
| COc1cc(/C=C\c2cc(OC)c(OC)c(OC)c2)cc(N/C=C\C(=O)c2cc(OC)c(OC)c(OC)c2)c1OC | 2.93 µM | > 100 µM |
| Cn1c(=O)c(Oc2ccc(F)cc2)cc2cnc(NC3CCOCC3)nc21 | > 25 µM | > 25 µM |
| Clc1nc(Cl)nc(Nc2cccc3ccccc23)n1 | 33.4 µM | > 100 µM |
| Nc1c(C(=O)c2ccccc2)cnn1-c1ccc(F)cc1 | > 25 µM | > 25 µM |
| C#Cc1nc(Nc2cc(C)[nH]n2)c2ccccc2n1 | 0.248 µM | 1.31 µM |
| Cc1nc2cc(Nc3nc(Nc4ccc(F)cc4)nc(-c4cccs4)n3)ccc2n1Cc1ccccc1 | 2.46 µM | 7.21 µM |

system: HL-60(TB) leukemia; assay: DTP human tumour cell line panel, 48 h

| Structure (SMILES) | GI50 | TGI |
| --- | --- | --- |
| COc1ccc(-c2nsc3c2NC(=O)CC3c2cccc(OC)c2)cc1 (stereo unspecified) | 1.35 µM | 17.4 µM |
| O=[N+]([O-])c1ccc(CI)cc1 | 2.24 µM | 5.22 µM |
| CCN(Cc1ccc(F)cc1)c1ccc(CO)c(Br)c1 | 3.26 µM | 26.4 µM |
| COc1ccc(-c2cc(/C=C/C(=O)c3ccc(OC)c(OC)c3)[nH]n2)cc1 | 2.18 µM | 6.4 µM |
| COc1ccc(C(O)(CCC(C)C)C(CN2CCOCC2)c2ccc(Cl)cc2)cc1 (stereo unspecified) | 14.8 µM | 39.1 µM |
| COc1cc(/C=C\c2cc(OC)c(OC)c(OC)c2)cc(N/C=C\C(=O)c2cc(OC)c(OC)c(OC)c2)c1OC | 3.24 µM | 42.2 µM |
